Experimental data as given in patent US10987349B2, “Antitumor agent and bromodomain inhibitor” (FUJIFILM Corporation, priority 2016, dated 2021).

Experiments:
PANC-1 = test: Cell growth test (Cell Titer Blue) PANC-1; assay type: cell-based; conditions: Homo sapiens, 72 h, PANC-1, Pancreatic cancer, 3 days
Description: (§1) Moreover, the compound of Example 14 was subjected to a cell growth test using various types of cell lines.
(§2) All cell lines other than the below-noticed cells were each seeded in a well plate, in which an RPMI-1640 medium supplemented with penicillin/streptomycin and FBS with a final concentration of 10% was placed. The human prostate cancer cell line VCaP (ATCC) was seeded in a well plate, in which DMEM medium supplemented with penicillin/streptomycin and FBS with a final concentration of 10% was placed. […] Thereafter, using Enspire Multimode Plate Reader (PerkinElmer), the amount of fluorescence at an excitation wavelength of 531 nm and a fluorescence wavelength of 615 nm was measured. Since the amount of fluorescence is in proportion to the concentration of a florescent product resorufin that is converted from resazurin as a redox dye by living cells, the amount of fluorescence was used as an indicator of the number of living cells. The growth inhibition percentage of the test compound in each concentration was calculated according to the following equation. Growth inhibition percentage (%)=(amount of fluorescence in test compound−added well)/(amount of fluorescence in DMSO−added well)×100 […]

T47D = test: Cell growth test (Cell Titer Blue) T47D; assay type: cell-based; conditions: Homo sapiens, 72 h, Breast cancer, 3 days
Description: as §1, §2

NCI-H69 = test: Cell growth test (Cell Titer Blue) NCI-H69; assay type: cell-based; conditions: Homo sapiens, 72 h, NCI-H69, Lung cancer, 3 days
Description: as §1, §2

NCI-H1299 = test: Cell growth test (Cell Titer Blue) NCI-H1299; assay type: cell-based; conditions: Homo sapiens, 72 h, NCI-H1299, Lung cancer, 3 days
Description: as §1, §2

T-24 = test: Cell growth test (Cell Titer Blue) T-24; assay type: cell-based; conditions: Homo sapiens, 72 h, T-24, Bladder cancer, 3 days
Description: as §1, §2

c-Myc gene = test: Intratumoral expression of c-Myc gene in MV4-11-subcutaneously-transplanted cancer-bearing mouse models, RT-PCR; assay type: in vivo; conditions: 30 mg/kg
Description: According to an RT-PCR method, a fluctuation in the intratumoral expression of a c-Myc gene in MV4-11-subcutaneously-transplanted cancer-bearing mouse models, to which a test compound had been administered, was analyzed.
The compound of Example 14 was dissolved in a solvent (a 0.5% methyl cellulose aqueous solution or water containing 1 equivalent of hydrochloric acid), and the obtained solution was then orally administered to the mice at a dose of 30 mg/kg. As a negative control, a solvent administration group (vehicle) involving administration of a 0.5% methyl cellulose aqueous solution was established. Moreover, the test compound was dissolved in a solvent (a normal saline containing 1 equivalent of hydrochloric acid), and the obtained solution was then intravenously administered to the mice at a dose of 30 mg/kg. As a negative control, a solvent administration group (vehicle) involving administration of a normal saline was established. From MV4-11-subcutaneously-transplanted cancer-bearing mice involving oral or intravenous administration of the test compound, tumor was excised 1, 3, 6 and 24 hours (hr) after the administration. […] A PCR reaction was carried out by the same method as that of Test Example 5, and a fluctuation in the gene expression of GAPDH and c-Myc in the tumor was then evaluated.

NOMO-1 = test: Cell growth test (Cell Titer Blue) NOMO-1; assay type: cell-based; conditions: Homo sapiens, 72 h, NOMO-1, Acute myeloid leukemia, 3 days
Description: as §1, §2

HL-60 = test: Cell growth test (Cell Titer Blue) HL-60; assay type: cell-based; conditions: Homo sapiens, 72 h, HL-60, Acute myeloid leukemia, 3 days
Description: as §1, §2

CCRF-CEM = test: Cell growth test (Cell Titer Blue) CCRF-CEM; assay type: cell-based; conditions: Homo sapiens, 72 h, Acute lymphoblastic leukemia, 3 days
Description: as §1, §2

[1] = test system: human prostate cancer cell line VCaP; test: Cell growth test (Cell Titer Blue) VCaP; assay type: cell-based; conditions: 72 h, 3 days
Description: as §1, §2

MDA-MB-453 = test: Cell growth test (Cell Titer Blue) MDA-MB-453; assay type: cell-based; conditions: Homo sapiens, 72 h, MDA-MB-453, Breast cancer, 3 days
Description: as §1, §2

MDA-MB-231 = test: Cell growth test (Cell Titer Blue) MDA-MB-231; assay type: cell-based; conditions: Homo sapiens, 72 h, MDA-MB-231, Breast cancer, 3 days
Description: as §1, §2

DU-145 = test: Cell growth test (Cell Titer Blue) DU-145; assay type: cell-based; conditions: Homo sapiens, 72 h, DU-145, Prostate cancer, 3 days
Description: as §1, §2

MKN45 = test: Cell growth test (Cell Titer Blue) MKN45; assay type: cell-based; conditions: Homo sapiens, MKN-45, 72 h, MKN45, Stomach cancer, 3 days
Description: as §1, §2

HT-29 = test: Cell growth test (Cell Titer Blue) HT-29; assay type: cell-based; conditions: Homo sapiens, 72 h, HT-29, Colon cancer, 3 days
Description: as §1, §2

Saos-2 = test: Cell growth test (Cell Titer Blue) Saos-2; assay type: cell-based; conditions: Homo sapiens, 72 h, Saos-2, Sarcoma, 3 days
Description: as §1, §2

KG-1A = test: Cell growth test (Cell Titer Blue) KG-1A; assay type: cell-based; conditions: Homo sapiens, 72 h, Acute myeloid leukemia, 3 days
Description: as §1, §2

LNCaP = test: Cell growth test (Cell Titer Blue) LNCaP; assay type: cell-based; conditions: Homo sapiens, 72 h, Prostate cancer, 3 days
Description: as §1, §2

GI50 (PANC-1): 2.98 µM | GI50 (T47D): 0.286 µM | GI50 (NCI-H69): 0.975 µM | GI50 (NCI-H1299): 0.422 µM | GI50 (HL-60): 0.027 µM | GI50 (CCRF-CEM): 0.065 µM | GI50 [1]: 0.361 µM | GI50 (MDA-MB-453): 0.115 µM | GI50 (MDA-MB-231): 0.085 µM | GI50 (DU-145): 1.43 µM | GI50 (MKN45): 2.18 µM | GI50 (HT-29): 0.12 µM | GI50 (LNCaP): 0.064 µM
SMILES: CCn1c(=O)cc(C2CCN(C)CC2)c2cc(C(=O)N(C)c3ccc(C)cc3)ccc21 [Example 14, 1-Ethyl-N-methyl-N-(4-methylphenyl)-4-(1-methylpiperidin-4-yl)-2-oxo-1,2-dihydroquinoline-6-carboxamide]
GI50 (T-24): 3.04 µM | intratumoral expression of the c-Myc gene (c-Myc gene; intravenously, tumor excised 1, 3, 6 and 24 hr after administration (FIG. 4)): decreased | intratumoral expression of the c-Myc gene (c-Myc gene; orally, tumor excised 1, 3, 6 and 24 hr after administration (FIG. 5)): decreased | GI50 (NOMO-1): 0.062 µM | GI50 (Saos-2): 2.62 µM | GI50 (KG-1A): 0.119 µM
